This passage reports Activity results from ChEMBL document CHEMBL2074009, “Possible involvement of P-glycoprotein in biliary excretion of CPT-11 in rats” (Drug Metab Dispos, 1999).

The target in this test is Multidrug resistance protein 1a (Rattus norvegicus) (UniProt Q6PSM0). As to the kind of experiment: TP_TRANSPORTER: uptake (high affinity, inhibited by PSC-833, Verapamil and Cyclosporin A) in bile canalicular membrane vesicles from SD rat. Type of test: functional, cell membranes. The note with it: Sprague-Dawley, Bile canalicular membrane vesicle.
Multidrug resistance protein 1a (Rattus norvegicus), sequence (Q6PSM0 as listed by the source): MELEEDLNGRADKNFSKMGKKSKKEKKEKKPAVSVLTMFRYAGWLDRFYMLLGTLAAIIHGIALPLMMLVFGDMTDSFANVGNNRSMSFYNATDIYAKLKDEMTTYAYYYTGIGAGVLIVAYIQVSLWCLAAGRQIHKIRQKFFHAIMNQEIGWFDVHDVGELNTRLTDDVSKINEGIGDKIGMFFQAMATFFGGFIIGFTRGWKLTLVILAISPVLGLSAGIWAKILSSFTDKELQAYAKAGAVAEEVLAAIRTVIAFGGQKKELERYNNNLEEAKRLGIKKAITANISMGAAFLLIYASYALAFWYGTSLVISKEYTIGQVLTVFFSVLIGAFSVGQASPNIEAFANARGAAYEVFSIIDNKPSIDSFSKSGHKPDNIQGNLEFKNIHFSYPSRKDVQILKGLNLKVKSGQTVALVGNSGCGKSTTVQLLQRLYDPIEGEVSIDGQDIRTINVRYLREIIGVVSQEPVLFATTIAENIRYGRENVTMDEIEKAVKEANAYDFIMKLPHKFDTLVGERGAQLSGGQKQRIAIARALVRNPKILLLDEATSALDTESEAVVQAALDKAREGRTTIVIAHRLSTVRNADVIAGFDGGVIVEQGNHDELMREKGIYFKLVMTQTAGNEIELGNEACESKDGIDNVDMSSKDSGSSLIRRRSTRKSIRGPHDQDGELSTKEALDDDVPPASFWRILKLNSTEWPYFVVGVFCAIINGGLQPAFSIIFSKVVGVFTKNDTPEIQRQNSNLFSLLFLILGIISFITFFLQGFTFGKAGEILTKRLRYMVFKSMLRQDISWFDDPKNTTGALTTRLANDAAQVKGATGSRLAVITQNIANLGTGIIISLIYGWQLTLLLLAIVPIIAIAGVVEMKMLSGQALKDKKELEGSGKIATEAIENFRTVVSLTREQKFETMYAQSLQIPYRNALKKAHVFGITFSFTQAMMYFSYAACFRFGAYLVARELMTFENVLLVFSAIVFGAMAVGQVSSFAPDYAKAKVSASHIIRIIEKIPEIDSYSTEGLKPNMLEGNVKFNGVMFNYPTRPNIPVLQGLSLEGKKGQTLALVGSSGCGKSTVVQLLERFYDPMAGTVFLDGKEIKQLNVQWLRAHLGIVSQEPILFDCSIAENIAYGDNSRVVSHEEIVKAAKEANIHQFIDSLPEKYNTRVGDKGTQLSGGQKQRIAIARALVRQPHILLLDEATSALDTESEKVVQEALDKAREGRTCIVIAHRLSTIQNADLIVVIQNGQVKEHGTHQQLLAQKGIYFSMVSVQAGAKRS

On to `CCc1c2c(nc3ccc(OC(=O)N4CCC(N5CCCCC5)CC4)cc13)-c1cc([C@@](O)(CC)C(=O)O)c(CO)c(=O)n1C2`, for which the Activity entry is “substrate [+]”.
